From patent publication US20250269044A1, “PSMA-TARGETED DENDRIMER NANOPLATFORM FOR CANCER DETECTION AND THERAPY” (Washington State University, priority 2024, published 2025)
≈ marks a conversion by molar mass, not a printed value. Entries after “also recorded” stand apart in the source; their conditions may differ.

How the values were obtained:
PC3-PIP PSMA (+) cells = experiment: CellTiter-Glo Luminescent Cell Viability assay; assay type: cell-based; details: Homo sapiens; for viability at 1 µg/mL: 1 μg/ml; for viability at 1 µg/mL / viability at 10 µg/mL / viability at 1000 µg/mL / EC50: 72 h; for viability at 1 µg/mL / viability at 10 µg/mL / viability at 1000 µg/mL: read-out: viable cells; for viability at 10 µg/mL: 10 μg/ml; for viability at 1000 µg/mL: 1000 μg/ml; for IC50: 72 H, equivalent drug bases, read-out: IC50 anti-proliferative activity; for EC50: nonlinear regression with variable slope
Description: Cell viability: 2.5×10^4 PC3-PIP PSMA (+) cells were allowed to adhere to a 96 well plate overnight. The following day, cell media was changed and the PD-CTT1298-Cabo conjugate, at the concentrations tested, was added along with cabozantinib (Cabo) and hydoxy-cabozantinib (Cabo-OH). The cells were allowed to incubate at 37°° C. for 72H. Following incubation, the luminescence of the viable cells was measured using the CellTiter-Glo® Luminescent Cell Viability assay according to manufacturer's instructions. Cell viability (%) was calculated using the luminescence values obtained from the controls used in the experiment. The experiment was performed in triplicate.
Cell viability. 2.5×10^4 PC3-PIP PSMA (+) cells were allowed to adhere to a 96 well plate overnight. The following day, cell media was changed and the PSMA-2DG-D-Cabo dendrimer, at the concentrations tested, were added along with Cabozantinib (Cabo) and Cabozantinib-7-hydoxy derivative (Cabo-OH). The cells were allowed to incubate at 37° C. for 72 h. Following incubation, the luminescence of the viable cells was measured using the CellTiter-Glo® Luminescent Cell Viability assay (Promega, G7570) according to manufacturer's instructions. The luminescence data was collected using a plate reader. Cell viability (%) was calculated using the luminescence values obtained from the controls used in the experiment. The blank cells served as a positive (+) control while sterile 10% DMSO (Fisher Scientific, BP231) served as the negative (−) control. The experiment was performed in triplicate. A similar experiment was carried out with 2DG-D dendrimer at different concentrations (0.1, 1, 10, 100 and 1000 μg/ml) following the same protocol. The experiments were performed in triplicate, with proper controls. Statistical analyses were performed using a TWO-WAY ANOVA T-Test with unequal variances.

Aqueous solubility = assay type: physicochemical
c-Met = c-Met (Homo sapiens, UniProt P08581); experiment: c-Met inhibition activities (IC50); assay type: biochemical; details: read-out: c-Met inhibitory activity IC50
Sequence of c-Met (P08581 25-1390): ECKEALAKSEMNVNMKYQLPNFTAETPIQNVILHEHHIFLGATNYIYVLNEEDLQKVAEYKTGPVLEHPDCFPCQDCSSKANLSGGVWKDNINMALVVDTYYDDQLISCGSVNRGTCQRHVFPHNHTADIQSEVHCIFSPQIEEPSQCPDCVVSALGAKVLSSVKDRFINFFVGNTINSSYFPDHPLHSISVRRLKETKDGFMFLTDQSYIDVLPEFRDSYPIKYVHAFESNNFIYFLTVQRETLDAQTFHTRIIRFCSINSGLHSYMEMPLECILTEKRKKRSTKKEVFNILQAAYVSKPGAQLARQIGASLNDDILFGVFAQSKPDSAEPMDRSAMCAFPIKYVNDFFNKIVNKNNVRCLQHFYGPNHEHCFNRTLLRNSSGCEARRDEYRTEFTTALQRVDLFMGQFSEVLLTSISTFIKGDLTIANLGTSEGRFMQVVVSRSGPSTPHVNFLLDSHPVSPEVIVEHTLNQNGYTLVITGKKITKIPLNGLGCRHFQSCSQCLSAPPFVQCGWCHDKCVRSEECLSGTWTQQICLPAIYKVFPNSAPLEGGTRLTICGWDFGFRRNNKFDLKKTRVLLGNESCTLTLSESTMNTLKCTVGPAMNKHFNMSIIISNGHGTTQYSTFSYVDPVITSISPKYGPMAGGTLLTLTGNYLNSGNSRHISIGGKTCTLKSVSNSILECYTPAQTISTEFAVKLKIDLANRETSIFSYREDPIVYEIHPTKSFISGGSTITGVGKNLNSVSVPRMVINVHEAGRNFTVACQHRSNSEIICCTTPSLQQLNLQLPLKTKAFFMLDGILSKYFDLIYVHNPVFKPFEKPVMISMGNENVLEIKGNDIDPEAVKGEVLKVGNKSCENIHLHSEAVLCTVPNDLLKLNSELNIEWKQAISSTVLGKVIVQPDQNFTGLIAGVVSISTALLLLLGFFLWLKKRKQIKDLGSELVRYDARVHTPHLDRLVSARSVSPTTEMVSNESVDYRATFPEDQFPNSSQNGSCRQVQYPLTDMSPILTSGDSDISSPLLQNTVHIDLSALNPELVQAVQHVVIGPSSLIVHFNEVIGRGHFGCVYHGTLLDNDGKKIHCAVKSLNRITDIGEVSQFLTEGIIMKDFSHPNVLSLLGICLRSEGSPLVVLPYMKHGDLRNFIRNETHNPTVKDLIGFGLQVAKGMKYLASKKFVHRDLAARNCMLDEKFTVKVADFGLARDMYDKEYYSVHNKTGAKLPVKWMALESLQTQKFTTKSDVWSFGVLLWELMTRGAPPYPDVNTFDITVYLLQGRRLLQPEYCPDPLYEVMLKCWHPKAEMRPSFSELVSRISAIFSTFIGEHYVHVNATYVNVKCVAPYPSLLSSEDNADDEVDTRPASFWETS

IC50 (PC3-PIP PSMA (+) cells) [µg/mL] | EC50 (PC3-PIP PSMA (+) cells) [µg/mL] | IC50 (c-Met) [nM] | Compound | viability at 1 µg/mL (PC3-PIP PSMA (+) cells) [%] | viability at 10 µg/mL (PC3-PIP PSMA (+) cells) [%] | viability at 1000 µg/mL (PC3-PIP PSMA (+) cells) [%] | water solubility (in words) (Aqueous solubility)
24.8 ± 2.27 | 68 (≈ 136 µM) | – | COc1cc2nccc(Oc3ccc(NC(=O)C4(C(=O)Nc5ccc(F)cc5)CC4)cc3)c2cc1OC [Cabo, cabozantinib] | 96.3 ± 4.58 | 69.2 ± 0.94 | 4.17 ± 0.53 | poor aqueous solubility; also recorded: negligible solubility in water
77.3 ± 4.35 | 69.4 (≈ 142 µM) | 26.3 | COc1cc2c(Oc3ccc(NC(=O)C4(C(=O)Nc5ccc(F)cc5)CC4)cc3)ccnc2cc1O [Cabo-OH, hydoxy-cabozantinib] | 105 ± 6.38 | 106 ± 3.09 | 7.81 ± 0.24 | poor aqueous solubility; also recorded: negligible solubility in water
